Earlier results as cited in patent publication US4826688A, “Controlled absorption pharmaceutical formulation” (501 Elan Corporation PLC., priority 1985, dated 1989).

Structure (SMILES)	absorption from the gastro-intestinal tract (in words)	peak plasma concentrations are reached (quinidine sulphate, usual)	excretion in the urine (in words)
C=C[C@H]1C[N@@]2CC[C@H]1C[C@@H]2[C@@H](O)c1ccnc2ccc(OC)cc12 [Quinidine sulphate]	rapidly absorbed	about two	–
C=C[C@H]1C[N@@]2CC[C@H]1C[C@@H]2[C@@H](O)c1ccnc2ccc(OC)cc12 [Quinidine, (+)-α-(6-methoxyquinolin-4-yl)-α-(5-vinylquinuclidin-2-yl)methanol]	–	–	almost entirely excreted in the urine
